From US20260234165A1, “MACROCYCLIC COMPOUNDS, PREPARATION METHOD THEREFOR, AND USE THEREOF” (GENFLEET THERAPEUTICS (SHANGHAI) INC., priority 2004, published 2026) come the findings set out here.

Common to all, as to assay type: cell-based, human
The subject of one assay is NCI-H441 cells. Put plainly: 3D cell proliferation assay (CellTiter Glo-3D), NCI-H441. The note with it: medium with 2% FBS, read-out: H441 AP IC50. In a few lines:
(§1)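 Proliferation of the KRAS-mutant lines NCI-H441 and AsPC-1 is measured over 5 days of compound treatment in medium with 2% FBS. Inhibition is computed from luminescence relative to DMSO and cell-free controls, and IC50 comes from a four-parameter curve.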
Background: Cellular ATP, detected with luciferase, serves as a proxy for viable cell number.

Assay [1] concerns p-ERK in NCI-H441 cells (KRAS G12V mutation). Put plainly: Cell p-ERK assay (HTRF) in NCI-H441 cells. The method, boiled down: (§2)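 Cells are plated (AsPC-1 at 10000, NCI-H441 at 20000 per well) and cultured overnight. Next day compound is added in a 3.16-fold dilution series with 0.1% DMSO and left 3 h. After lysis, p-ERK antibodies incubate 4 h before HTRF reading and four-parameter IC50 fitting.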
(In general: In TR-FRET formats the signal depends on donor and acceptor labels being close together.)

For assay [2], the system named is p-ERK in AsPC-1 cells (KRAS G12D mutation). Put plainly: Cell p-ERK assay (HTRF) in AsPC-1 cells. The method, boiled down: as §2
Assay [3] concerns AsPC-1 cells (KRAS G12D mutation). Briefly: 3D cell proliferation assay (CellTiter Glo-3D), AsPC-1. To be noted: medium with 2% FBS, read-out: AsPC-1 AP IC50. In a few lines: as §1
[4] abbreviates: 3D cell proliferation (CellTiter Glo-3D).
[5] abbreviates: NCI-H441 cells, 3 h compound incubation, HTRF p-ERK T202/Y204, read-out: H441 p-ERK IC50.
Where [6] appears, read: AsPC-1 cells, 3 h compound incubation, HTRF p-ERK T202/Y204, read-out: AsPC-1 p-ERK IC50.
Where [7] appears, read: Homo sapiens, NCI-H441, 3D cell proliferation (CellTiter Glo-3D).
Setting [8] is: Homo sapiens, NCI-H441, 3 h, NCI-H441 cells, 3 h compound incubation, HTRF p-ERK T202/Y204, read-out: H441 p-ERK IC50.
[9] abbreviates: Homo sapiens, ASPC1, 3 h, AsPC-1 cells, 3 h compound incubation, HTRF p-ERK T202/Y204, read-out: AsPC-1 p-ERK IC50.
The mark [10] stands for this setting: Homo sapiens, ASPC1, 3D cell proliferation (CellTiter Glo-3D).

Structures can show the parent of a compound that is named as a salt. Where two headings read alike, the source gives them in different places.

As a reminder, the IC50 is the concentration at which inhibition is half-maximal. `CCn1c(-c2cc(OCC3(N4CCS(=O)(=O)CC4)CC3)cnc2[C@H](C)OC)c2c3cc(ccc31)-c1csc(n1)C[C@H](NC(=O)[C@H]1[C@H](C)[C@@H]1C)C(=O)N1CCC[C@H](N1)C(=O)OCC(C)(C)C2` [Compound Z449, (1r,2R,3S)—N-((6^3S,4S,Z)-1^2-(5-((1-(1,1-dioxidothiomorpholino)cyclopropyl)methoxy)-2-((S)-1-methoxyethyl)pyridin-3-yl)-1^1-ethyl-10,10-dimethyl-5,7-dioxo-6^1,6^2,6^3,6^4,6^5,6^6-hexahydro-1^1-hydrogen-8-oxa-2(4,2)-thiazola-1(5,3)-indola-6(1,3)-pyridazinacycloundecaphane-4-yl)-2,3-dimethylcyclopropane-1-carboxamide]: the IC50 is 0.34 nM with NCI-H441 cells (setting [4]), 0.33 nM in assay [1] (setting [5]), 0.21 nM in assay [2] (setting [6]) and 0.45 nM in assay [3] (setting [4]).

With `CCn1c(-c2cc([C@@H]3CCN4CCOC[C@@H]4C3)cnc2[C@H](C)OC)c2c3cc(ccc31)-c1csc(n1)C[C@H](NC(=O)[C@H]1[C@H](C)[C@@H]1C)C(=O)N1CCC[C@H](N1)C(=O)OCC1(CC1)C2` (single isomer, unassigned) [Compound Z77], the IC50 with NCI-H441 cells (setting [7]) came to 4.94 nM; in assay [1] (setting [8]), 7.48 nM; in assay [2] (setting [9]), 13.9 nM; in assay [3] (setting [10]), 17.4 nM.

With `CCn1c(-c2cc(OC[C@@H]3CCCN3Cc3ccn(C)n3)cnc2[C@H](C)OC)c2c3cc(ccc31)-c1csc(n1)C[C@H](NC(=O)[C@H]1[C@H](C)[C@@H]1C)C(=O)N1CCC[C@H](N1)C(=O)OCC(C)(C)C2` (atropisomer, axis not shown; (Ra)) [Compound Z784-1, (1r,2R,3S)—N-((6^3S,4S,Z)—(Ra)-1^2-5-(((S)-1-((1-methyl-1H-pyrazol-3-yl)methyl)pyrrolidin-2-yl)methoxy)-(2-((S)-1-methoxyethyl)-pyridin-3-yl)-10,10-dimethyl-5,7-dioxo-6^1,6^2,6^3,6^4,6^5,6^6-hexahydro-1^1H-8-oxa-2(4,2)-thiazola-1(5,3)-indola-6(1.3)-pyridazinacycloundecaphane-4-yl)-2,3-dimethylcyclopropane-1-carboxamide], the IC50 in the assay on NCI-H441 cells (setting [7]) stood at 0.93 nM; in assay [1] (setting [8]) it was 0.9 nM; in assay [2] (setting [9]), 0.89 nM; in assay [3] (setting [10]), 1.37 nM.

Take `CCn1c(-c2cc(OCC(C)(C)N3CCS(=O)(=O)CC3)cnc2[C@H](C)OC)c2c3cc(ccc31)-c1csc(n1)C[C@H](NC(=O)[C@H]1[C@H](C)[C@@H]1C)C(=O)N1CCC[C@H](N1)C(=O)OCC(C)(C)C2` [Compound Z667A]: the IC50 is 1.31 nM in the assay on NCI-H441 cells (setting [4]), 1.6 nM in assay [1] (setting [5]), 2.6 nM in assay [2] (setting [6]) and 2.97 nM in assay [3] (setting [4]).

As to `CCn1c(-c2cc(OCCN3CCS(=O)(=NC)CC3)cnc2[C@H](C)OC)c2c3cc(ccc31)-c1csc(n1)C[C@H](NC(=O)[C@H]1[C@H](C)[C@@H]1C)C(=O)N1CCC[C@H](N1)C(=O)OCC(C)(C)C2` (atropisomer, axis not shown; (Ra)) [Compound Z601, (1r,2R,3S)—N-((6^3S,4S,Z)-1^1-ethyl-1^2-(Ra)-(2-((S)-1-methoxyethyl)-5-(2-(1-(methylimino)-1-oxido-1λ^6-thiomorpholino)ethoxy)pyridin-3-yl)-10-10-dimethyl-5,7-dioxo-6^1,6^2,6^3,6^4,6^5,6^6-hexahydro-1^1H-8-oxa-2(4,2)-thiazola-1(5,3)-indola-6(1,3)-pyridazinacycloundecaphane-4-yl)-2,3-dimethylcyclopropane-1-carboxamide], the 50% inhibitory concentration (IC50) in the assay on NCI-H441 cells (setting [7]) worked out at 0.36 nM; in assay [1] (setting [8]), 0.62 nM; in assay [2] (setting [9]), 0.49 nM; in assay [3] (setting [10]) it was 0.58 nM.

Regarding `CCn1c(-c2cc(C3(C(=O)N4CCN(C)CC4)CC3)cnc2[C@H](C)OC)c2c3cc(ccc31)-c1csc(n1)C[C@H](NC(=O)[C@H]1[C@H](C)[C@@H]1C)C(=O)N1CCC[C@H](N1)C(=O)OCC(C)(C)C2` [Compound Z75, (1r,2R,3S)—N-((6^3S,4S,Z)-1^1-ethyl-1^2-(2-((S)-1-methoxyethyl)-5-(1-(4-methylpiperazine-1-carbonyl)cyclopropyl)pyridin-3-yl)-10,10-dimethyl-5,7-dioxo-6^1,6^2,6^3,6^4,6^5,6^6-hexahydro-1^1H-8-oxa-2(4,2)-thiazola-1(5,3)-indola-6(1,3)-pyridazinacycloundecaphane-4-yl)-2,3-dimethylcyclopropane-1-carboxamide], the half-maximal inhibitory concentration (IC50) is 19.4 nM with NCI-H441 cells (setting [7]), 18.6 nM in assay [1] (setting [8]), 38.7 nM in assay [2] (setting [9]) and 56.5 nM in assay [3] (setting [10]).

With `CCn1c(-c2cc(C#C[C@@]3(C)CCCN3C)cnc2[C@H](C)OC)c2c3cc(ccc31)-c1csc(n1)C[C@H](NC(=O)[C@H]1[C@H](C)[C@@H]1C)C(=O)N1CCC[C@H](N1)C(=O)OCC(C)(C)C2` (atropisomer, axis not shown; (Ra)) [Compound Z643, (1r,2R,3S)—N-((6^3S,4S,Z)—(Ra)-1-(5-(((R)-1,2-dimethylpyrrolidin-2-yl)ethynyl)-2-((S)-1-methoxyethyl)pyridin-3-yl)-1^1-ethyl-10,10-dimethyl-5,7-dioxo-6^1,6^2,6^3,6^4,6^5,6^6-hexahydro-1^1H-8-oxa-2(4,2)-thiazola-1(5,3)-indola-6(1,3)-pyridazinacycloundecaphane-4-yl)-2,3-dimethylcyclopropane-1-carboxamide], the half-maximal inhibitory concentration (IC50) stood at 0.3 nM in the assay with NCI-H441 cells (setting [7]), 0.22 nM in assay [1] (setting [8]), 0.51 nM in assay [2] (setting [9]) and 0.64 nM in assay [3] (setting [10]).

Consider `CCn1c(-c2cc(C#CCN3CCC(O)(c4cccc[n+]4[O-])CC3)cnc2[C@H](C)OC)c2c3cc(ccc31)-c1csc(n1)C[C@H](NC(=O)[C@H]1[C@H](C)[C@@H]1C)C(=O)N1CCC[C@H](N1)C(=O)OCC(C)(C)C2` (atropisomer, axis not shown; (Ra)) [Compound Z1047, 2-(1-(3-(5-((6^3S,4S,Z)-4-((1r,2R,3S)-2,3-dimethylcyclopropane-1-carboxamido)-1^1-ethyl-10,10-dimethyl-5,7-dioxo-6^1,6^2,6^3,6^4,6^5,6^6-hexahydro-1^1H-8-oxa-2(4,2)-thiazola-1(5,3)-indola-6(1,3)-pyridazinacycloundecaphane-1^2-yl)-(Ra)-6-((S)-1-methoxyethyl)pyridin-3-yl)prop-2-yn-1-yl)-4-hydroxypiperidin-4-yl)pyridine-1-oxide formate], for which the IC50 was determined as 0.24 nM in the assay on NCI-H441 cells (Homo sapiens, 3D cell proliferation (CellTiter Glo-3D)); 0.22 nM in assay [1] (Homo sapiens, NCI-H441, 3 h, read-out: H441 p-ERK IC50(nM)); 0.24 nM in assay [2] (Homo sapiens, ASPC1, 3 h, read-out: AsPC-1 p-ERK IC50(nM)); 0.37 nM in assay [3] (setting [10]).

As for `CO[C@@H](C)c1ncc(C#CCN2CCC2)cc1-c1c2c3cc(ccc3n1CC(F)(F)F)-c1csc(n1)C[C@H](NC(=O)[C@H]1[C@H](C)[C@@H]1C)C(=O)N1CCC[C@H](N1)C(=O)OCC(C)(C)C2` (atropisomer, axis not shown; (Ra)) [Compound Z362-2, (1r,2R,3S)—N-((6^3S,4S,Z)-1′-(5-(3-(azetidin-1-yl)prop-1-yn-1-yl)-(Ra)-2-((S)-1-methoxyethyl)pyridin-3-yl)-10,10-dimethyl-5,7-dioxo-1^1-(2,2,2-trifluoroethyl)-6^1,6^2,6^3,6^4,6^5,6^6-hexahydro-1^1H-8-oxa-2(4,2)-thiazola-1(5,3)-indola-6(1,3)-pyridazinacycloundecaphane-4-yl)-2,3-dimethylcyclopropane-1-carboxamide], the IC50 in the assay on NCI-H441 cells (setting [7]) is 0.67 nM; in assay [1] (setting [8]), 0.71 nM; in assay [2] (setting [9]) it was 0.48 nM; in assay [3] (setting [10]), 0.82 nM.

Consider `CCn1c(-c2cc(C#CC(C)(C)N3CCCOCC3)cnc2[C@H](C)OC)c2c3cc(ccc31)-c1csc(n1)C[C@H](NC(=O)[C@H]1[C@H](C)[C@@H]1C)C(=O)N1CCC[C@H](N1)C(=O)OCC(C)(C)C2` (atropisomer, axis not shown; (Ra)) [Compound Z625, (1r,2R,3S)—N-((6S,4S,Z)-1^1-ethyl-(Ra)-1^2-(2-((S)-1-methoxyethyl)-5-(3-(1,4-oxazepan-4-yl)-3-methylbut-1-yn-1-yl)pyridin-3-yl)-10,10-dimethyl-5,7-dioxo-6^1,6^2,6^3,6^4,6^5,6^6hexahydro-1^1H-8-oxa-2(4,2)-thiazola-1(5,3)-indola-6(1,3)-pyridazinacycloundecaphane-4-yl)-2,3-dimethylcyclopropane-1-carboxamide], for which the 50% inhibitory concentration (IC50) is 0.24 nM with NCI-H441 cells (setting [7]), 0.2 nM in assay [1] (setting [8]), 0.33 nM in assay [2] (setting [9]) and 0.36 nM in assay [3] (setting [10]).
